Where two headings read alike, the source gives them in different places.

Experimental findings from patent US9204653B2, “5-fluoro pyrimidine derivatives” (DOW AGROSCIENCES LLC, priority 2008, dated 2015) are described below.

For assay [1], the system named is Mycosphaerella graminicola; Anamorph: Septoria tritici; Bayer Code SEPTTR. The assay is described as follows: Leaf blotch of wheat, foliar fungicide treatment, one day protectant (1DP) or three day curative (3DC). Type of assay: in vivo, Septoria tritici on wheat plants (variety Yuma). The note with it: Zymoseptoria tritici.
Assay [2] deals with Venturia inaequalis; Bayer Code VENTIN. The assay is described as follows: Apple scab. The note with it: 24 h, % disease control rating, one day protectant; for pest or weed control at 25 ppm: read-out: VENTIN 1 DP 25 ppm; for pest or weed control at 75 ppm: read-out: VENTIN 1 DP 75 ppm. It is filed as in vivo.
For assay [3], the system named is Cercospora beticola; Bayer Code CERCBE. The assay is described as follows: Leaf spot of sugar beets. It is filed as in vivo, Cercospora beticola on sugar beets (variety HH-88). The note with it: 24 h, % disease control rating, one day protectant; for pest or weed control at 25 ppm: read-out: CERCBE 1 DP 25 ppm; for pest or weed control at 75 ppm: read-out: CERCBE 1 DP 75 ppm.

[4] abbreviates: 24 h, one day protectant (1DP), percent disease control rating, read-out: SETTTR 1DP 25 ppm.
Setting [5] is: 24 h, one day protectant (1DP), percent disease control rating, read-out: SEPTTR 1DP 100 ppm.
The mark [6] stands for this setting: 72 h, three day curative (3DC), percent disease control rating, read-out: SEPTTR 3DC 25 ppm.
[7] abbreviates: 72 h, three day curative (3DC), percent disease control rating, read-out: SEPTTR 3DC 100 ppm.
[8] abbreviates: 24 h, one day protectant (1DP), rating of percent disease control, read-out: SETTTR 1DP 25 ppm.
Setting [9] is: 24 h, one day protectant (1DP), rating of percent disease control, read-out: SEPTTR 1DP 100 ppm.
Setting [10] is: 72 h, three day curative (3DC), rating of percent disease control, read-out: SEPTTR 3DC 25 ppm.
Setting [11] is: 72 h, three day curative (3DC), rating of percent disease control, read-out: SEPTTR 3DC 100 ppm.

Turning to `C/C(=N\Oc1ncc(F)c(N)n1)c1ccccc1` [Compound 4, 1-Phenyl-ethanone-O-(4-amino-5-fluoropyrimidin-2-yl)oxime], the pest or weed control at 25 ppm in assay [1] (setting [4]), in assay [1] (setting [6]), in assay [2] and in assay [3] was 76 to 100% each time. Also, the pest or weed control at 100 ppm in assay [1] (setting [5]) and in assay [1] (setting [7]) was 76 to 100% in each case. Also, the pest or weed control at 75 ppm in assay [2] and in assay [3] was 76 to 100% each time.
For the compound `CN1CCN(CNc2nc(OCc3ccc(F)cc3)ncc2F)CC1` [Compound 7, [5-Fluoro-2-(4-fluorobenzyloxy)pyrimidin-4-yl]-(4-methylpiperazin-1-ylmethyl)amine], the pest or weed control at 25 ppm in assay [1] (setting [4]) was 76 to 100%; in assay [1] (setting [6]) it was 76 to 100%; in assay [2] it was 76 to 100%; in assay [3], 51 to 75%. Further, the pest or weed control at 100 ppm in assay [1] (setting [5]) and in assay [1] (setting [7]) was 76 to 100% each time. The pest or weed control at 75 ppm lay in the range of 76 to 100% in assay [2] and 51 to 75% in assay [3].
Consider `CCOC(=O)C(=O)Nc1nc(OCc2ccc(F)cc2)ncc1F` [Compound 11, N-[5-Fluoro-2-(4-fluorobenzyloxy)pyrimidin-4-yl]oxalamic acid ethyl ester], for which the pest or weed control at 25 ppm was 76 to 100% in assay [1] (setting [4]), 76 to 100% in assay [1] (setting [6]), 76 to 100% in assay [2] and 0 to 25% in assay [3]. For the same compound, the pest or weed control at 100 ppm in assay [1] (setting [5]) and in assay [1] (setting [7]) was 76 to 100% in each case. Besides, the pest or weed control at 75 ppm in assay [2] was in the range of 76 to 100%; in assay [3], 0 to 25%.
Consider `CCC(Nc1nc(OCc2ccc(F)cc2)ncc1F)OC` (centres unmarked) [Compound 14, [5-Fluoro-2-(4-fluorobenzyloxy)pyrimidin-4-yl](1-methoxypropyl)amine], for which the pest or weed control at 25 ppm in assay [1] (setting [4]) lay within 76 to 100%; in assay [1] (setting [6]), 76 to 100%; in assay [2], 76 to 100%; in assay [3], 0 to 25%. The pest or weed control at 100 ppm in assay [1] (setting [5]) and in assay [1] (setting [7]) was 76 to 100% each time. For the same compound, the pest or weed control at 75 ppm in assay [2] was in the range of 76 to 100%; in assay [3], 0 to 25%.
Turning to `N#CN/C=N/c1nc(OCc2ccc(F)cc2)ncc1F` [Compound 23, N-[5-Fluoro-2-(4-fluorobenzyloxy)pyrimidin-4-yl]-N′-cyanoformamidine], the pest or weed control at 25 ppm is 76 to 100% in assay [1] (setting [4]), 76 to 100% in assay [1] (setting [6]), 51 to 75% in assay [2] and 0 to 25% in assay [3]. Besides, the pest or weed control at 100 ppm in assay [1] (setting [5]) and in assay [1] (setting [7]) was 76 to 100% throughout. The figures for the pest or weed control at 75 ppm in assay [2] and in assay [3] were 76 to 100% and 51 to 75%, respectively.
Regarding `CC/C(=N\c1nc(OCc2ccc(F)cc2)ncc1F)N(C)C` [Compound 24, N′-[5-Fluoro-2-(4-fluorobenzyloxy)pyrimidin-4-yl]-N,N-dimethyl-propionamidine], the pest or weed control at 25 ppm lay within 76 to 100% in assay [1] (setting [4]), 76 to 100% in assay [1] (setting [6]), 26 to 50% in assay [2] and 0 to 25% in assay [3]. For the same compound, the pest or weed control at 100 ppm in assay [1] (setting [5]) and in assay [1] (setting [7]) was 76 to 100% throughout. Also, the pest or weed control at 75 ppm was in the range of 76 to 100% in assay [2] and 0 to 25% in assay [3].
On to `CCCNC(=O)N(C(=O)NCCC)c1nc(OCc2cccc(OC)c2)ncc1F` [Compound 36, 1-[5-Fluoro-2-(3-methoxybenzyloxy)pyrimidin-4-yl](3′-propylcarbamoyl)-3-propyl-urea], for which the pest or weed control at 25 ppm lay in the range of 26 to 50% in assay [1] (setting [4]), 51 to 75% in assay [1] (setting [6]), 51 to 75% in assay [2] and 51 to 75% in assay [3]. Further, the pest or weed control at 100 ppm in assay [1] (setting [5]) and in assay [1] (setting [7]) was 76 to 100% in each case. In addition, the values for the pest or weed control at 75 ppm in assay [2] and in assay [3] were 76 to 100% and 51 to 75%, respectively.
Take `Nc1nc(OC(Cc2ccccc2)c2ccc(F)cc2)ncc1F` (centres unmarked) [Compound 61]: the pest or weed control at 25 ppm in assay [1] (setting [4]) is 76 to 100%; in assay [1] (setting [6]), 0 to 25%; in assay [2] it was 76 to 100%; in assay [3] it was 0 to 25%. Moreover, the pest or weed control at 100 ppm in assay [1] (setting [5]) lay within 76 to 100%; in assay [1] (setting [7]) it was 0 to 25%. For the same compound, the values for the pest or weed control at 75 ppm in assay [2] and in assay [3] were 51 to 75% and 0 to 25%, respectively.
Regarding `CCCCCCOc1ncc(F)c(/N=C/N(C)C)n1` [Compound 68], the pest or weed control at 25 ppm in assay [1] (setting [4]) was 0 to 25%; in assay [1] (setting [6]), 0 to 25%; in assay [2] it was 51 to 75%; in assay [3] it was 51 to 75%. In addition, the pest or weed control at 100 ppm in assay [1] (setting [5]) and in assay [1] (setting [7]) was 51 to 75% throughout. Also, the pest or weed control at 75 ppm in assay [2] was 76 to 100%; in assay [3], 51 to 75%.
As to `Nc1nc(OCc2coc(Cc3ccccc3)c2)ncc1F` [Compound 69], the pest or weed control at 25 ppm in assay [1] (setting [4]) lay in the range of 76 to 100%; in assay [1] (setting [6]), 51 to 75%; in assay [2] it was 51 to 75%; in assay [3], 0 to 25%. Moreover, the pest or weed control at 100 ppm in assay [1] (setting [5]) and in assay [1] (setting [7]) was 76 to 100% in each case. Also, the pest or weed control at 75 ppm in assay [2] lay in the range of 76 to 100%; in assay [3], 26 to 50%.
With `Nc1nc(OCc2ccc(OCC(F)(F)F)nc2)ncc1F` [Compound 79], the pest or weed control at 25 ppm in assay [1] (setting [4]) was 76 to 100%; in assay [1] (setting [6]), 76 to 100%; in assay [2], 26 to 50%; in assay [3], 0 to 25%. The pest or weed control at 100 ppm in assay [1] (setting [5]) and in assay [1] (setting [7]) was 76 to 100% throughout. In addition, the pest or weed control at 75 ppm in assay [2] and in assay [3] was 26 to 50% throughout.
As to `CN(C)/C=N/c1nc(OCc2ccccc2)ncc1F` [Compound 209], the figures for the pest or weed control at 25 ppm in assay [1] (setting [8]), in assay [1] (setting [10]) and in assay [2] were 76 to 100%, 76 to 100% and 51 to 75%, respectively. Moreover, the pest or weed control at 100 ppm in assay [1] (setting [9]) and in assay [1] (setting [11]) was 76 to 100% throughout. Also, the pest or weed control at 75 ppm in assay [2] fell in the range of 76 to 100%.
As to `CCOC(=O)COc1ncc(F)c(N)n1` [Compound 221], the pest or weed control at 25 ppm lay within 0 to 25% in assay [2] and 26 to 50% in assay [3]. Besides, the pest or weed control at 75 ppm in assay [2] fell in the range of 26 to 50%; in assay [3] it was 51 to 75%.
In the case of `Nc1nc(OCc2cccc(F)c2)ncc1F` [Compound 236], the pest or weed control at 25 ppm in assay [1] (setting [8]), in assay [1] (setting [10]) and in assay [2] was 76 to 100% throughout. In addition, the pest or weed control at 100 ppm in assay [1] (setting [9]) and in assay [1] (setting [11]) was 76 to 100% in each case. Further, the pest or weed control at 75 ppm in assay [2] lay within 76 to 100%.
On to `Cc1ccccc1C(C)Oc1ncc(F)c(N)n1` (centres unmarked) [Compound 313], for which the pest or weed control at 25 ppm in assay [1] (setting [8]) is 76 to 100%; in assay [1] (setting [10]) it was 76 to 100%; in assay [2], 26 to 50%. Further, the pest or weed control at 100 ppm in assay [1] (setting [9]) and in assay [1] (setting [11]) was 76 to 100% each time. Also, the pest or weed control at 75 ppm in assay [2] was in the range of 51 to 75%.
Consider `Nc1nc(OCc2cc3ccccc3s2)ncc1F` [Compound 345], for which the figures for the pest or weed control at 25 ppm in assay [1] (setting [8]), in assay [1] (setting [10]) and in assay [2] were 76 to 100%, 76 to 100% and 51 to 75%, respectively. For the same compound, the pest or weed control at 100 ppm in assay [1] (setting [9]) and in assay [1] (setting [11]) was 76 to 100% each time. Besides, in assay [2], the pest or weed control at 75 ppm is 76 to 100%.
As to `Cc1cc(C)c(COc2ncc(F)c(/N=C/N(C)C)n2)c(C)c1` [Compound 347], the pest or weed control at 25 ppm in assay [1] (setting [8]), in assay [1] (setting [10]) and in assay [2] was 76 to 100% throughout. For the same compound, the pest or weed control at 100 ppm in assay [1] (setting [9]) and in assay [1] (setting [11]) was 76 to 100% throughout. Also, the pest or weed control at 75 ppm in assay [2] lay in the range of 26 to 50%.
In the case of `Cc1ccc(COc2ncc(F)c(/N=C/N(C)C)n2)cc1` [Compound 469], the pest or weed control at 25 ppm in assay [1] (setting [8]) lay in the range of 76 to 100%; in assay [1] (setting [10]), 76 to 100%; in assay [2], 51 to 75%. The pest or weed control at 100 ppm in assay [1] (setting [9]) and in assay [1] (setting [11]) was 76 to 100% each time. In addition, the pest or weed control at 75 ppm in assay [2] is 76 to 100%.
Regarding `Cc1cc(C)c(COc2ncc(F)c(N)n2)c(C)c1` [Compound 510], the pest or weed control at 25 ppm in assay [1] (setting [8]) was 51 to 75%; in assay [1] (setting [10]), 51 to 75%; in assay [2], 76 to 100%. Besides, the pest or weed control at 100 ppm in assay [1] (setting [9]) and in assay [1] (setting [11]) was 76 to 100% each time. The pest or weed control at 75 ppm in assay [2] is 76 to 100%.
In the case of `COc1ccc(COc2ncc(F)c(N)n2)cc1` [Compound 734], the pest or weed control at 25 ppm in assay [1] (setting [8]), in assay [1] (setting [10]) and in assay [2] was 76 to 100% in each case. The pest or weed control at 100 ppm in assay [1] (setting [9]) and in assay [1] (setting [11]) was 76 to 100% in each case. In addition, in assay [2], the pest or weed control at 75 ppm lay in the range of 76 to 100%.
